Measurements as given in patent publication US10383931B2, “Peptides and combination of peptides for use in immunotherapy against cancers” (IMMATICS BIOTECHNOLOGIES GMBH, priority 2016, dated 2019).

Molecular target: HLA-A*02:01 (Homo sapiens, UniProt P04439, D140Y/D185E/D98H/E176V/E277Q/G131W/G231S/I119V/I121R/I166T/I218V/L300P/L318F/N151K/N90K/P208A/P217A/Q86G/Q94H/R138H/R169H/T345S)
Test: ELISA-based assay of affinity (KD) to HLA-A*02:01
Format: binding
Details: FIG. 5

Row | Substance | binding to HLA-A*02:01 (dissociation constant KD, in words)
1 | KIQEILTQV [IGF2BP3-001, HLA-A*02-presented tumor-associated peptide] | very good binding
2 | MET-001: control peptide, strong binder to HLA-A*02:01 (YVDPVITSI) | strong binder
